# Measurements taken from patent US20230040182A1, “ARYL HETEROBICYCLIC COMPOUNDS AS Kv1.3 POTASSIUM SHAKER CHANNEL BLOCKERS” (priority 2019, published 2023).
# Legend:
# Kv1.3 potassium channel = target: T1, Kv1.3 potassium channel (Homo sapiens, UniProt P22001); assay: Kv1.3 potassium channel blocker activity, automated whole-cell patch clamp (Patchliner); assay type: cell-based; details: CHO-K1 cells stably expressing Kv1.3; whole-cell current, Hill fit
# T1 construct: expressed in transfected cells
# T1 sequence (P22001 whole entry): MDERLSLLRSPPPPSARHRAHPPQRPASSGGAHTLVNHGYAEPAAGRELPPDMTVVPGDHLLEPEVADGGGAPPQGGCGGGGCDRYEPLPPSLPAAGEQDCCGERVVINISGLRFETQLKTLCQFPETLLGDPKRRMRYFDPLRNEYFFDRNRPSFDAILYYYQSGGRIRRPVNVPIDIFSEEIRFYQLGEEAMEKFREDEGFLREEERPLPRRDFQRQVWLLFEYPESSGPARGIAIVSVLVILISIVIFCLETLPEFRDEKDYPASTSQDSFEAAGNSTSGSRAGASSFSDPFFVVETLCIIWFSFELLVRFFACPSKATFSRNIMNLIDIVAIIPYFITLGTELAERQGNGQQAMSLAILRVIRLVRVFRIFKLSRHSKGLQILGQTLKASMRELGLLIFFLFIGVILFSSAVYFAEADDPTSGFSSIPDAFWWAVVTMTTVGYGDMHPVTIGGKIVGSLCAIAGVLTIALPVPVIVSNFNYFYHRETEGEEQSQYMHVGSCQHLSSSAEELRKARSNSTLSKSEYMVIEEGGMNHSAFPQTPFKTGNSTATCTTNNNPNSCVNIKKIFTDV
# How it was run: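 Stably transfected CHO-K1 cells, whole-cell automated patch clamp: 100 ms pulses from −90 to +40 mV at 0.1 Hz, 20-pulse trains, cumulative concentrations 30 nM–100 μM without washout (≤0.3% DMSO), external pH 7.4. IC50 from Hill fit of last-pulse peak/AUC normalized to compound-free control.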
# hERG channel = target: T2, hERG channel (Homo sapiens, UniProt Q12809); assay: hERG electrophysiology, automated whole-cell patch clamp (Patchliner); assay type: cell-based; details: CHO-K1 cells stably expressing hERG; whole-cell current, Hill fit
# T2 construct: expressed in transfected cells
# T2 sequence (Q12809 whole entry): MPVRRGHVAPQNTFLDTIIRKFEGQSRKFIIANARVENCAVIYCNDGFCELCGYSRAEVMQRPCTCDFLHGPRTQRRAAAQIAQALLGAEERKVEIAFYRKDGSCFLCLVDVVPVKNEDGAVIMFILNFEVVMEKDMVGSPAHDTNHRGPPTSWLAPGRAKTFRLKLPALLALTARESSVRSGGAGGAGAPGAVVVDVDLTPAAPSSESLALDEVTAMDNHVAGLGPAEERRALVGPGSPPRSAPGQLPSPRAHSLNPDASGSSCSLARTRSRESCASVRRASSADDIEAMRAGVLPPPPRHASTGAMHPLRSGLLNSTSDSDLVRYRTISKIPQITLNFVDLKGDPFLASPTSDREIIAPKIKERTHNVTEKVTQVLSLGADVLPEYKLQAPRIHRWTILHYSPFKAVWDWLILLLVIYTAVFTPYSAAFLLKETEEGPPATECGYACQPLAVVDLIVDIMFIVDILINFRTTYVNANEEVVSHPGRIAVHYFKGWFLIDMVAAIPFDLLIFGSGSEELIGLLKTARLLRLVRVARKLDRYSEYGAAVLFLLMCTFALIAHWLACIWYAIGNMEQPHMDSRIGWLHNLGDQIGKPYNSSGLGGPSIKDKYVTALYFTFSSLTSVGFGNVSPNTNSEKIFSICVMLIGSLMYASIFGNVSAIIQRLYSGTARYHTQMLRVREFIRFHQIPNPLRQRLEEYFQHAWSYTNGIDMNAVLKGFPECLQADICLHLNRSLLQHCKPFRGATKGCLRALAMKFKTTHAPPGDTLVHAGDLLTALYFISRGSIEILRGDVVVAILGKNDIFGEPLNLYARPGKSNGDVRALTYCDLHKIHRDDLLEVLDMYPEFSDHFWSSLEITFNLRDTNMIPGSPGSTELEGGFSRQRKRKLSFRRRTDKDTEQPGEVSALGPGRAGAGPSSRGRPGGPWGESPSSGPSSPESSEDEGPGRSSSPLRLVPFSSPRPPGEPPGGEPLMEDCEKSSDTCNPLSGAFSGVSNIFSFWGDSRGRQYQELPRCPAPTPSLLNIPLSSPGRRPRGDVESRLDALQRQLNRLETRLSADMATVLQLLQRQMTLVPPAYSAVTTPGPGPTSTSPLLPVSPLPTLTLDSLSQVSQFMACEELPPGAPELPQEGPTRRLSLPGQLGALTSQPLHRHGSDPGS
# Procedure: Example 10. Evaluation of hERG Activities
# This assay is used to evaluate the disclosed compounds' inhibition activities against the hERG channel.
# CHO-K1 cells stably expressing hERG were grown in Ham's F-12 Medium with Glutamine containing 10% heat-inactivated FBS, 1% Penicillin/Streptomycin, Hygromycin (100 μg/ml) and G418 (100 μg/ml). Cells were grown in culture flasks at 37° C. in a 5% CO2-humidified incubator.
# The cells were bathed in an extracellular solution containing 140 mM NaCl, 4 mM KCl, 2 mM CaCl2), 1 mM MgCl2, 5 mM Glucose, 10 mM HEPES; pH adjusted to 7.4 with NaOH; 295-305 mOsm. The internal solution contained 50 mM KCl, 10 mM NaCl, 60 mM KF, 20 mM EGTA, 10 mM HEPES; pH adjusted to 7.2 with KOH; 285 mOsm. All compounds were dissolved in DMSO at 30 mM. Compound stock solutions were freshly diluted with external solution to concentrations of 30 nM, 100 nM, 300 nM, 1 μM, 3 μM, 10 μM, 30 μM and 100 μM. The highest content of DMSO (0.3%) was present in 100 μM.
# The voltage protocol (see Table B) was designed to simulate voltage changes during a cardiac action potential with a 300 ms depolarization to +20 mV (analogous to the plateau phase of the cardiac action potential), a repolarization for 300 ms to −50 mV (inducing a tail current) and a final step to the holding potential of −80 mV. The pulse frequency was 0.3 Hz. Control (compound-free) and compound pulse trains for each compound concentration applied contained 70 pulses.
# Whole-cell current recordings and compound application were enabled by means of an automated patch clamp platform Patchliner (Nanion). EPC 10 patch clamp amplifier (HEKA) along with Patchmaster software (HEKA Elektronik Dr. Schulze GmbH) was used for data acquisition. Data were sampled at 10 kHz without filtering. Increasing compound concentrations were applied consecutively to the same cell without washouts in between.
# AUC and PEAK values were obtained with Patchmaster (HEKA Elektronik Dr. Schulze GmbH). To determine IC50 the last single pulse in the pulse train corresponding to a given compound concentration was used. Obtained AUC and PEAK values in the presence of compound were normalized to control values in the absence of compound. Using Origin (OridinLab), IC50 was derived from data fit to Hill equation: Icompound/Icontrol=(100−A)/(1+([compound]/IC50)nH)+A, where IC50 is the concentration at which current inhibition is half-maximal, [compound] is the applied compound concentration, A is the fraction of current that is not blocked and nH is the Hill coefficient.
IC50 (Kv1.3 potassium channel) [µM],Structure (SMILES),IC50 (hERG channel) [µM]
< 1,"O=C1[C@H]2[C@@H](O)CCN2C(=O)[C@@H]2C[C@H](c3c(O)ccc(Cl)c3Cl)CCN12 [Compound 12, (1S,5aS,7R,11aR)-7-(2,3-dichloro-6-hydroxyphenyl)-1-hydroxyhexahydro-1H-pyrido[1,2-a]pyrrolo[1,2-d]pyrazine-5,11(5aH,11aH)-dione]",> 30
< 1,"C[C@@H](O)[C@H]1NC(=O)[C@@H]2C[C@H](c3c(O)ccc(Cl)c3Cl)CCN2C1=O [Compound 24, (3R,8R,9aS)-8-(2,3-dichloro-6-hydroxyphenyl)-3-[(1R)-1-hydroxyethyl]-hexahydro-2H-pyrido[1,2-a]pyrazine-1,4-dione]",> 30
< 1,"O=C1[C@@H]2C[C@H](c3c(O)ccc(Cl)c3Cl)CCN2C(=O)CN1CCO [Compound 26, (8R,9aS)-8-(2,3-dichloro-6-hydroxyphenyl)-2-(2-hydroxyethyl)-hexahydropyrido[1,2-a]pyrazine-1,4-dione]",> 30
< 1,"CC(C)[C@H](O)[C@H]1NC(=O)[C@@H]2C[C@H](c3c(O)ccc(Cl)c3Cl)CCN2C1=O [Compound 30, (3R,8R.9aS)-8-(2,3-dichloro-6-hydroxyphenyl)-3-[(1S)-1-hydroxy-2-methylpropyl]-hexahydro-2H-pyrido[1,2-a]pyrazine-1,4-dione]",> 30
< 1,"O=C1[C@@H]2C[C@H](c3c(O)ccc(Cl)c3Cl)CCN2C(=O)CN1C(CO)CO [Compound 32, (8R,9aS)-8-(2,3-dichloro-6-hydroxyphenyl)-2-(1,3-dihydroxypropan-2-yl)hexahydro-4H-pyrido[1,2-a]pyrazine-1,4(6H)-dione]",> 30
< 1,"CN1CC(=O)N2CCC(c3c(O)ccc(Cl)c3Cl)CC2C1=O (stereo not shown) [Compound 36, 8-(2,3-dichloro-6-hydroxyphenyl)-2-methyl-octahydro-1H-pyrido[1,2-a]pyrazine-1,4-dione]",> 30
< 1,"O=C1NCC(=O)N2CC[C@@H](c3c(O)ccc(Cl)c3Cl)C[C@@H]12 [Compound 41, (8R,9aS)-8-(2,3-dichloro-6-hydroxyphenyl)hexahydro-4H-pyrido[1,2-a]pyrazine-1,4(6H)-dione]",> 30
< 1,"O=C1[C@@H]2C[C@H](c3cc(Cl)c(Cl)cc3O)CCN2C(=O)CN1C1CNC1 [Compound 50, (8R,9aS)-2-(azetidin-3-yl)-8-(4,5-dichloro-2-hydroxyphenyl)hexahydro-4H-pyrido[1,2-a]pyrazine-1,4(6H)-dione]",> 30
< 1,"O=C1[C@@H]2C[C@H](c3c(O)ccc(Cl)c3Cl)CCN2C(=O)[C@H]2C[C@@H](O)CN12 [Compound 52, (2R,5aS,7R,11aR)-7-(2,3-dichloro-6-hydroxyphenyl)-2-hydroxyhexahydro-1H-pyrido[1,2-a]pyrrolo[1,2-d]pyrazine-5,11(5aH,11aH)-dione]",> 30
< 1,"O=C1N[C@@H](CO)C(=O)N2CC[C@@H](c3c(O)ccc(Cl)c3Cl)C[C@@H]12 [Compound 53, (3S,8R,9aS)-8-(2,3-dichloro-6-hydroxyphenyl)-3-(hydroxymethyl)hexahydro-4H-pyrido[1,2-a]pyrazine-1,4(6H)-dione]",> 30
< 1,"C[C@H]1NC(=O)[C@@H]2C[C@H](c3c(O)ccc(Cl)c3Cl)CCN2C1=O [Compound 58, (3R,8R,9aS)-8-(2,3-dichloro-6-hydroxyphenyl)-3-methyl-hexahydro-2H-pyrido[1,2-a]pyrazine-1,4-dione]",> 30
< 1,"O=C1N[C@H](CO)C(=O)N2CC[C@@H](c3c(O)cc(Cl)c(Cl)c3Cl)C[C@@H]12 [Compound 60, (8R,9aS)-3-((3R)-hydroxymethyl)-8-(2,3,4-trichloro-6-hydroxyphenyl)-hexahydro-2H-pyrido[1,2-a]pyrazine-1,4-dione]",> 30
< 1,"O=C1[C@H]2C[C@@H](c3c(O)ccc(Cl)c3Cl)CCN2C(=O)CN1C1CNC1 [Compound 64, (8S,9aR)-2-(azetidin-3-yl)-8-(2,3-dichloro-6-hydroxyphenyl)-octahydro-1H-pyrido[1,2-a]pyrazine-1,4-dione]",> 30
< 1,"NN1C(=O)[C@@H]2C[C@H](c3c(O)ccc(Cl)c3Cl)CCN2C1=O [Compound 68, (7R,8aS)-2-amino-7-(2,3-dichloro-6-hydroxyphenyl)tetrahydro-imidazo[1,5-a]pyridine-1,3(2H,5H)-dione]",> 30
